Consider three compounds from US8748388B2, “Antitumoral compounds” (Pharma Mar, S.A., priority 2008, dated 2014).

Data set [1] relates to MDA-MB-231. Nature of the data set: SRB colorimetric cytotoxicity assay, MDA-MB-231. It counts as cell-based, human. The settings on record: MDA-MB-231, 48 hours exposure; for CC50: read-out: LC50 (the source's name). The source says: (§1) The aim of this assay is to evaluate the in vitro cytostatic (ability to delay or arrest tumor cell growth) or cytotoxic (ability to kill tumor cells) activity of the samples being tested.
(§2) A colorimetric type of assay, using sulforhodamine B (SRB) reaction has been adapted for a quantitative measurement of cell growth and viability (following the technique described by Skehan P et al. J. Natl. Cancer Inst. 1990, 82, 1107-1112).
(§3) This form of assay employs SBS-standard 96-well cell culture microplates (Faircloth et al. Methods in cell science, 1988, 11(4), 201-205; Mosmann et al. Journal of. Immunological. Methods, 1983, 65(1-2), 55-63). All the cell lines used in this study, derived from different types of human cancer, were obtained from the American Type Culture Collection (ATCC).
(§4) Cells were maintained in Dulbecco's Modified Eagle Medium (DMEM) supplemented with 10% Fetal Bovine Serum (FBS), 2 mM L-glutamine, 100 U/mL penicillin and 100 U/mL streptomycin at 37° C., 5% CO2 and 98% humidity. For the experiments, cells were harvested from subconfluent cultures using trypsinization and resuspended in fresh medium before counting and plating.
(§5) Cells were seeded in 96 well microtiter plates at 5×10^3 cells per well in aliquots of 150 μL, and allowed to attach to the plate surface for 18 hours in drug free medium. One control (untreated) plate of each cell line was fixed (as described below) and used for time zero reference value. Afterwards, test samples were added to the cultures in ten serial dilutions, in aliquots of 50 μL, ranging from 10 to 0.00262 μg/mL. After 48 hours exposure, the antitumor effect was estimated by the SRB method: Briefly, cells were washed twice with PBS, fixed for 15 min in 1% glutaraldehyde solution, rinsed twice in PBS, and stained in 0.4% SRB solution for 30 min at room temperature. Cells were then rinsed several times with 1% acetic acid solution and air-dried. SRB was then extracted in 10 mM trizma base solution and the absorbance measured in an automated spectrophotometric plate reader at 490 nm. Cell survival was expressed as percentage of control cell growth. The final effect of the sample being tested was estimated by applying the NCl algorithm (Boyd M R and Paull K D. Drug Dev. Res. 1995, 34, 91-104).
(§6) Using the mean±SD of triplicate cultures, a dose-response curve was automatically generated using nonlinear regression analysis. Three reference parameters were calculated (NCl algorithm) by automatic interpolation: GI50=concentration that produces 50% growth inhibition; TGI=total growth inhibition (cytostatic effect) and LC50=concentration that produces 50% net cell killing (cytotoxic effect).

Data set [2] has as its system HT29. Description: SRB colorimetric cytotoxicity assay, HT29. It counts as cell-based, human. The settings on record: HT29, 48 hours exposure; for CC50: read-out: LC50 (the source's name).
Excerpt: as §1, §2, §3, §4, §5, §6

For data set [3], the system named is A549. Nature of the data set: SRB colorimetric cytotoxicity assay, A549. It counts as cell-based, human. The settings on record: A549, 48 hours exposure; for CC50: read-out: LC50 (the source's name).
Excerpt: as §1, §2, §3, §4, §5, §6

The subject of data set [4] is leukemia cell line L1210. To be noted: Boger and Lee 2000; cited from earlier work.

One may read the GI50 as the concentration giving 50% growth inhibition.

Bridge positions count the residues as written; N and C are the ends. Square brackets hold non-standard residues; d marks the D form. Peptide text beside a SMILES is read from it. I, II: the chains in the order shown. * marks the point of attachment. Quinaldoyl(3-OH) = O=C(c1nc2ccccc2cc1O)*; NMeC = CN[C@@H](CS)C(=O)O; dDap = NC[C@@H](N)C(=O)O

Regarding `CSC[C@H]1C(=O)N(C)C[C@@H](NC(=O)c2nc3ccccc3cc2O)C(=O)NCC(=O)N(C)[C@H]2CSSC[C@@H](C(=O)N1C)N(C)C(=O)CNC(=O)[C@H](NC(=O)c1nc3ccccc3cc1O)CN(C)C(=O)[C@H](CSC)N(C)C2=O` [Compound 2, {[3-HQA-D-Dap(Me&^1)-Gly-NMeCys(&^2)—NMe-Cys(Me)&^3][3-HQA-D-Dap(Me&^3)-Gly-NMeCys(&^2)—NMe-Cys(Me)&^1]], the GI50 in data set [1] came out at 4.08 nM; in data set [2], 20.8 nM; in data set [3], 3.39 nM. In addition, the figures for the TGI in data set [1], in data set [2] and in data set [3] were 4.26E−08 Molar, 1.13E−07 Molar and 2.00E−08 Molar, respectively. The CC50 in data set [1] came to 373 nM; in data set [2] it was 747 nM; in data set [3] it was 165 nM.

In the case of Azatriostin A, the “cytotoxic activity compared with Triostin A” value in data set [4] is on record as “two orders of magnitude less active”.

Turning to `CSC[C@H]1C(=O)NC[C@@H](NC(=O)c2nc3ccccc3cc2O)C(=O)NCC(=O)N(C)[C@H]2CSSC[C@@H](C(=O)N1C)N(C)C(=O)CNC(=O)[C@H](NC(=O)c1nc3ccccc3cc1O)CNC(=O)[C@H](CSC)N(C)C2=O` [Azathiocoraline] (I: {Quinaldoyl(3-OH)}-[dDap]G[NMeC][NMeC](Me) / II: {Quinaldoyl(3-OH)}-[dDap]G[NMeC][NMeC](Me); amide I:1-II:C, I:C-II:1; disulfide I:3-II:3), in data set [1], the 50% growth inhibitory concentration (GI50) stood at 2140 nM, the TGI is on record as >8.90E−06 Molar and the CC50 is > 8900 nM. In data set [2], the GI50 worked out at 3120 nM, the TGI is reported as >8.90E−06 Molar and the CC50 was > 8900 nM. Also, in data set [3], it took 3740 nM to inhibit growth by half (GI50), the TGI was >8.90E−06 Molar and the CC50 is > 8900 nM.
